In brackets after ≈: the same amount, converted by molar mass.
Assays:
[1] = test system: alveolar lavage fluid sample 0204, A. baumannii; assay: BMD susceptibility test of patient alveolar lavage fluid; type: cell-based, Acinetobacter baumannii; conditions: unit assumed
[2] = test system: E.coli 1146; assay: Vitek 2 drug sensitivity test; type: cell-based, Escherichia coli; as to Sensibility: key: S: Drug sensitive; R: Drug resistance
[3] = test system: E. coli Ec11; assay: BMD susceptibility test; type: cell-based, Escherichia coli; conditions: unit assumed
[4] = test system: A. baumannii Ab16; assay: FaAST (FDAA metabolic labeling); type: cell-based, Acinetobacter baumannii; conditions: unit assumed
How it was run: (§1)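 Bacteria at OD600=0.05 in CAMHB mixed with antibiotic dilutions plus Cy5-DAA probe at 0.15 mM final, then incubated 2 h in the dark. Cell-wall labeling fluorescence measured by flow cytometry after PBS dilution.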

[5] = test system: alveolar lavage fluid sample 0203, K. pneumoniae; assay: BMD susceptibility test of patient alveolar lavage fluid; type: cell-based, Klebsiella pneumoniae; conditions: unit assumed
From the text: (§2) The results of antimicrobial susceptibility test of alveolar lavage fluid of seven patients using FDAA and BMD methods are shown in the following table. The drug-resistant bacteria are shown in bold.

[6] = test system: alveolar lavage fluid sample 0226, K. pneumoniae; assay: as above; type: cell-based, Klebsiella pneumoniae; conditions: unit assumed
From the text: as §2

[7] = test system: K. pneumoniae Kp6; assay: BMD susceptibility test; type: cell-based, Klebsiella pneumoniae; conditions: unit assumed
[8] = test system: E. coli Ec13; assay: FaAST (FDAA metabolic labeling); type: cell-based, Escherichia coli; conditions: unit assumed
How it was run: as §1

[9] = test system: K. pneumoniae Kp9; assay: BMD susceptibility test; type: cell-based, Klebsiella pneumoniae; conditions: unit assumed
[10] = test system: S. aureus Sa23; assay: BMD susceptibility test; type: cell-based, Staphylococcus aureus; conditions: unit assumed
[11] = test system: P. aeruginosa Pa2; assay: FaAST (FDAA metabolic labeling); type: cell-based, Pseudomonas aeruginosa; conditions: unit assumed
Method: (§3) The specific experimental steps are as follows: • 1. Take the colony to be tested that has been cultured overnight on the plate and fully mix it in normal saline to make a uniform bacterial solution. Dilute it into CAMHB medium to make a bacterial solution with OD600=0.05. • 2. Add 45 μl antibiotic solutions to be tested of different concentrations to 96-well plates (see Table 3 for antibiotic concentration gradient settings). • 3. Add 50 μl of bacterial solution prepared in Step 1 to the 96-well plate and mix well. • 4.5 μl of 10 mM Cy5-DAA probe was added to each well (final concentration was 0.15 mM, and its structure was shown in FIG. 1). After mixing, the probe was incubated for 2 hours in the dark. • 5. After dilution with 200 μl PBS solution, the fluorescence intensity of each sample was detected by flow cytometry. The flow detection results are shown in the attached FIG. 4-5, showing the curve of antibiotic concentration gradient and fluorescence intensity, and the MIC (minimum inhibitory concentration) is obtained by referring to this curve.
(§4) Antibiotic resistant strains are shown in bold in the table below.

[12] = test system: Pa ATCC 27853; assay: FaAST (FDAA metabolic labeling); type: cell-based, Pseudomonas aeruginosa; conditions: unit assumed
Method: as §3, §4

[13] = test system: P. aeruginosa Pa3; assay: FaAST (FDAA metabolic labeling); type: cell-based, Pseudomonas aeruginosa; conditions: unit assumed
Method: as §3, §4

[14] = test system: A. baumannii Ab19; assay: FaAST (FDAA metabolic labeling); type: cell-based, Acinetobacter baumannii; conditions: unit assumed
How it was run: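 Bacteria diluted to OD600=0.05 in CAMHB were exposed to an antibiotic concentration series with Cy5-DAA probe […] for 2 h in the dark. Per-sample fluorescence was read by flow cytometry after PBS dilution. MIC was taken from the antibiotic concentration–fluorescence curve.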

[15] = test system: E. faecium Ef28; assay: FaAST (FDAA metabolic labeling method); type: cell-based, Enterococcus faecium; conditions: unit assumed
Method: Take the colony to be tested that has been cultured overnight on the plate and fully mix it in normal saline to make a uniform bacterial solution. Dilute it into Cation-Adjusted Mueller Hinton Broth (CAMHB) culture medium to make a bacterial solution with OD600=0.05. • 2. Add 45 μl antibiotic solutions of different concentrations to 96-well plates (see Table 1 for antibiotic concentration gradient settings). • 3. Add 50 μl of the bacterial solution prepared in step 1 to the 96-well plate and mix well. • 4. Add 5 μl of 10 mM Cy5-DAA probe (final concentration 0.15 mM, see FIG. 1 for its structure) into each well, mix well, and cultivate in dark for 2 hours. • 5. Add 200 μl After PBS solution is diluted, the fluorescence intensity of each sample is detected by flow cytometry. […] The MIC (minimum inhibitory concentration) can be obtained by referring to this curve.

[16] = test system: bacteria contained in alveolar lavage fluid; assay: Vitek 2 drug sensitivity test of alveolar lavage fluid; type: cell-based; as to Sensibility: key: S: Drug sensitive; R: Drug resistance
[17] = test system: Acinetobacter baumannii ABA19; assay: VITEK drug sensitivity test; type: cell-based; conditions: unit assumed
[18] = test system: Acinetobacter baumannii ABA19; assay: FaAST with DAA-Tetra probe; type: cell-based; conditions: unit assumed
[19] = test system: Enterococcus faecium EFM26; assay: FaAST with DAA-Tetra probe; type: cell-based; conditions: unit assumed
[20] = test system: Pseudomonas aeruginosa PAE2; assay: FaAST with DAA-Tetra probe; type: cell-based; conditions: unit assumed

For `C[C@H]1COc2c(N3CCN(C)CC3)c(F)cc3c(=O)c(C(=O)O)cn1c23` [Levofloxacin, levofloxacin], the BMD (MIC) [1] was 0.5 µg/mL, the Sensibility [2] was “R” and the MIC ([2]; Escherichia coli) was no less than 8 µg/mL. The BMD (MIC) [3] was no more than 0.25 µg/mL, the FaAST (MIC) [4] was 32 µg/mL and the BMD (MIC) [5] was 0.25 µg/mL. The BMD (MIC) [6] was 1 µg/mL, the BMD (MIC) [7] was no more than 0.25 µg/mL and the FaAST (MIC) [8] was 4 µg/mL. For the same compound, the BMD (MIC) [9] was 32 µg/mL, the BMD (MIC) [10] was 1 µg/mL and the FaAST (MIC) [11] was 0.5 µg/mL. It also gave a FaAST (MIC) [12] of 0.5 µg/mL, a FaAST (MIC) [13] of 0.5 µg/mL and a FaAST (MIC) [14] of 0.5 µg/mL. The FaAST (MIC) [15] was 64 µg/mL, the MIC [16] was no less than 8 µg/mL and the Sensibility [16] was “R”. The MIC, VITEK [17] was no more than 0.25 µg/mL, the MIC, FaAST [18] was 0.5 µg/mL (≈ 1.38 µM) and the MIC, FaAST [19] was 64 µg/mL (≈ 177 µM). It also gave an MIC, FaAST [20] of 0.5 µg/mL (≈ 1.38 µM).

Source: patent publication US20240240224A1, “FLUORESCENT D-TYPE AMINO ACID METABOLISM MARKER-BASED METHOD FOR DETECTING ANTIBACTERIAL DRUG SENSITIVITY TEST” (priority 2020, published 2024)
